Test results published in ChEMBL document CHEMBL1201862, “PubChem BioAssay data set” (2004).
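Assay format: 96-well plates, 48-hour exposure. At the GI50, growth is halved.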 Active and inactive are the calls of the source. Rule as the data show it: active = GI50 up to about 1.1 µM and inactive = higher.

How the values were obtained:
Test in all cases: NCI anticancer screen, dose series, 48 h
SK-MEL-2 = test system: SK-MEL-2
NCI-H226 = test system: NCI-H226
CCRF-CEM = test system: CCRF-CEM
OVCAR-8 = test system: OVCAR-8
HL-60 = test system: HL-60
A549 = test system: A549
UACC-62 = test system: UACC-62
SF-539 = test system: SF-539
A498 = test system: A498
SF-295 = test system: SF-295
OVCAR-5 = test system: OVCAR-5
OVCAR-3 = test system: OVCAR-3
DMS-273 = test system: DMS-273
ACHN = test system: ACHN
MOLT-4 = test system: MOLT-4
OVCAR-4 = test system: OVCAR-4
K562 = test system: K562
SK-OV-3 = test system: SK-OV-3
RPMI-8226 = test system: RPMI-8226
SK-MEL-5 = test system: SK-MEL-5
KM12 = test system: KM12
LOX IMVI = test system: LOX IMVI
IGROV-1 = test system: IGROV-1
SNB-19 = test system: SNB-19
TK-10 = test system: TK-10
HOP-18 = test system: HOP-18
786-0 = test system: 786-0
SNB-75 = test system: SNB-75
SN12C = test system: SN12C
SR = test system: SR
RXF 393 = test system: RXF 393
HCT-116 = test system: HCT-116
HCT-15 = test system: HCT-15
SNB-78 = test system: SNB-78
NCI-H23 = test system: NCI-H23
HOP-92 = test system: HOP-92
HT-29 = test system: HT-29
M19-MEL = test system: M19-MEL
Malme-3M = test system: Malme-3M
COLO 205 = test system: COLO 205
M14 = test system: M14
LXFL 529 = test system: LXFL 529
KM-20L2 = test system: KM-20L2
UACC-257 = test system: UACC-257
NCI-H460 = test system: NCI-H460
UO-31 = test system: UO-31
SW-620 = test system: SW-620
HCC 2998 = test system: HCC 2998
EKVX = test system: EKVX
HOP-62 = test system: HOP-62
DMS-114 = test system: DMS-114
U-251 = test system: U-251
SF-268 = test system: SF-268
XF498 = test system: XF498
SK-MEL-28 = test system: SK-MEL-28
DLD-1 = test system: DLD-1

Measured: GI50

CC(C)[C@@H]1C=C(c2ccccc2)c2ccccc2C1C(C#N)(C#N)C(C)C (stereo partly specified)
> 100 µM: HCT-15
inactive: SK-MEL-2 > 100 µM | NCI-H226 > 100 µM | CCRF-CEM > 100 µM | OVCAR-8 > 100 µM | HL-60 31.7 µM | A549 79.4 µM | UACC-62 > 100 µM | SF-539 > 100 µM | A498 > 100 µM | SF-295 > 100 µM | OVCAR-5 > 100 µM | OVCAR-3 78.9 µM | DMS-273 48.6 µM | ACHN > 100 µM | MOLT-4 48.6 µM | OVCAR-4 82.4 µM | K562 38.2 µM | SK-OV-3 > 100 µM | RPMI-8226 19 µM | SK-MEL-5 39.7 µM | KM12 > 100 µM | LOX IMVI > 100 µM | IGROV-1 > 100 µM | SNB-19 > 100 µM | TK-10 > 100 µM | HOP-18 > 100 µM | 786-0 > 100 µM | SNB-75 > 100 µM | SN12C > 100 µM | SR 46.3 µM | RXF 393 > 100 µM | HCT-116 32.9 µM | SNB-78 > 100 µM | NCI-H23 76 µM | HOP-92 > 100 µM | HT-29 68.7 µM | M19-MEL > 100 µM | Malme-3M > 100 µM | COLO 205 > 100 µM | M14 > 100 µM | LXFL 529 > 100 µM | KM-20L2 > 100 µM | UACC-257 54.5 µM | NCI-H460 > 100 µM | UO-31 > 100 µM | SW-620 > 100 µM | HCC 2998 90.4 µM | EKVX > 100 µM | HOP-62 > 100 µM | DMS-114 97.7 µM | U-251 > 100 µM | SF-268 > 100 µM | XF498 45 µM | SK-MEL-28 > 100 µM | DLD-1 > 100 µM
